Results on 24 compounds are retold here after ChEMBL document CHEMBL5500396, “Discovery, Multiparametric Optimization, and Solid-State Driven Identification of CHF-6550, a Novel Soft Dual Pharmacology Muscarinic Antagonist and β2 Agonist (MABA) for the Inhaled Treatment of Respiratory Diseases” (J Med Chem, 2024).

Usually half-life stands for how long it takes for the measured level to halve. A low value points to rapid decline. Broadly, the hepatocyte CLint is the capacity of the preparation to metabolise the compound, expressed as a volume cleared per time. High values mean rapid turnover, low ones slow turnover. What is called Ki is the equilibrium dissociation constant of an inhibitor or competing ligand from its target. Read a high Ki as lower affinity.

Data set [1] in a line: in vitro. The settings on record: human, plasma.
Description: Stability in human plasma assessed as half-life at 5 uM incubated for 120 mins by LC-MS/MS analysis
A short description of data set [2]: in vitro. The conditions noted are these: rat, hepatocytes.
Description: Metabolic stability in rat hepatocytes assessed as clearance measured per 10^6 cells at 1 uM incubated for 90 mins by LC-MS/MS analysis
Data set [3] can be described thus: in vitro. The settings on record: human, hepatocytes.
Description: Metabolic stability in human hepatocytes assessed as clearance measured per 10^6 cells at 1 uM incubated for 90 mins by LC-MS/MS analysis
Data set [4] has as its target Beta-2 adrenergic receptor (Homo sapiens, UniProt P07550).
Description: Displacement of [125I]-Cyanopindolol from human beta2 adrenoceptor assessed as inhibition constant incubated for 1 hrs by Microbeta scintillation counter
A short description of data set [5]: in vitro. The conditions noted are these: rat, plasma.
Description: Stability in rat plasma assessed as half-life at 5 uM incubated for 120 mins by LC-MS/MS analysis
Data set [6] can be described thus: in vitro. The conditions noted are these: guinea pig, plasma.
Description: Stability in guinea pig plasma assessed as half-life at 5 uM incubated for 120 mins by LC-MS/MS analysis
Data set [7] concerns the target Muscarinic acetylcholine receptor M3 (Homo sapiens, UniProt P20309).
Description: Displacement of Scopolamine methyl chloride,[N-methyl-3H] from human muscarinic M3 receptor assessed as inhibition constant incubated for 2 hrs by Microbeta scintillation counter

Sequence of Beta-2 adrenergic receptor (P07550 whole entry): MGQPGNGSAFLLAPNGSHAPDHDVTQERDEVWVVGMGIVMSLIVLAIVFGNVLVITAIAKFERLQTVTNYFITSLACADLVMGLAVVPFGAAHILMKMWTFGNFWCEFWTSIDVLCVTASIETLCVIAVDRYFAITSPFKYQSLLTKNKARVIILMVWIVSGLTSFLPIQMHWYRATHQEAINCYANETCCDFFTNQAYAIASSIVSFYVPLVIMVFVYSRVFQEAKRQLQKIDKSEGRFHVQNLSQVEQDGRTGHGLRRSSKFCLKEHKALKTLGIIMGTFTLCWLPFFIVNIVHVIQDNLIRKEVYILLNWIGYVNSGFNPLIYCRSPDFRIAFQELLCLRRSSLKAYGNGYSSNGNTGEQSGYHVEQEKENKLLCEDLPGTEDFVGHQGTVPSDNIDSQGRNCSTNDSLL
Sequence of Muscarinic acetylcholine receptor M3 (P20309 whole entry): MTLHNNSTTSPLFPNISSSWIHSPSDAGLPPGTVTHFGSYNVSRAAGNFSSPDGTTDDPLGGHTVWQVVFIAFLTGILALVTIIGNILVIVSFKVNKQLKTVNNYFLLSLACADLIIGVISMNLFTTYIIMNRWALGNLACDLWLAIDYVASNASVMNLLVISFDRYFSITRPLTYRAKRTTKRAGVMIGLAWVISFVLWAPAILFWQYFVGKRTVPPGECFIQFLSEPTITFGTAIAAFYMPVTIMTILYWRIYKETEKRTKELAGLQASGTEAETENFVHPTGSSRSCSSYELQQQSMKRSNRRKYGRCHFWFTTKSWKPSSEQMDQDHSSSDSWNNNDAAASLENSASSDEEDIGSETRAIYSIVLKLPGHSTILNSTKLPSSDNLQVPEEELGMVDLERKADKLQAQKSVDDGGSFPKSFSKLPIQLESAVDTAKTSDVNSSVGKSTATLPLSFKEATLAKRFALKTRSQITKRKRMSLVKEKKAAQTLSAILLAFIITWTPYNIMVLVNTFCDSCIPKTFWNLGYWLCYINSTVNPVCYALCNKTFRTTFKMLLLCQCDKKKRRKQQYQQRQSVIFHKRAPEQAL

In the case of `COc1cc(C(=O)NCCCOc2cccc([C@](O)(C(=O)O[C@@H]3CCCN(C)C3)c3ccccc3)c2)c(F)cc1CNC[C@H](O)c1ccc(O)c2[nH]c(=O)ccc12`, the half-life at 2 h, 5 µM was more than 150 min in data set [1], 87 min in data set [5] and more than 150 min in data set [6]. The hepatocyte CLint at 1.5 h, 1 µM was determined as 40 µL/min/1e6 cells in data set [2] and 7 µL/min/1e6 cells in data set [3]. The same compound showed an inhibitory constant (Ki) in data set [4] of 0.0158 nM.

As to `O=C(NCCCOc1cccc([C@](O)(C(=O)O[C@@H]2CCN(Cc3ccccc3)C2)c2ccccc2)c1)c1ccc(CNC[C@H](O)c2ccc(O)c3[nH]c(=O)ccc23)cc1`, the half-life at 2 h, 5 µM in data set [1] was more than 150 min; in data set [5], 5 min; in data set [6], 37 min. Moreover, the results for the hepatocyte CLint at 1.5 h, 1 µM in data set [2] and in data set [3] were 69 µL/min/1e6 cells and 23 µL/min/1e6 cells, respectively. For the same compound, the affinity in data set [4], expressed as Ki, was 0.158 nM.

As to `CN1CCC[C@@H](OC(=O)[C@](O)(c2ccccc2)c2cccc(OCCCNC(=O)c3cnc(CNC[C@H](O)c4ccc(O)c5[nH]c(=O)ccc45)nc3)c2)C1.O=CO`, the values for the half-life at 2 h, 5 µM in data set [1], in data set [5] and in data set [6] were more than 150 min, 13 min and 8 min, respectively. The hepatocyte CLint at 1.5 h, 1 µM in data set [2] was 33 µL/min/1e6 cells; in data set [3], less than 2 µL/min/1e6 cells. The Ki in data set [4] was 0.0251 nM.

Turning to `O=C(NCCCCNC[C@H](O)c1ccc(O)c2[nH]c(=O)ccc12)c1ccc(C(=O)N2CCC(C(=O)O[C@H]3CN4CCC3CC4)(c3ccccc3)CC2)cc1`, the Ki was 0.631 nM in data set [4] and 1.58 nM in data set [7].

As to `CN1CCC[C@H](OC(=O)[C@](O)(c2ccccc2)c2cccc(OCCCNC(=O)c3ccc(CNC[C@H](O)c4ccc(O)c5[nH]c(=O)ccc45)cc3)c2)C1.O=CO.O=CO`, the half-life at 2 h, 5 µM was more than 150 min in data set [1], 8 min in data set [5] and 51 min in data set [6]. The hepatocyte CLint at 1.5 h, 1 µM in data set [2] was 52 µL/min/1e6 cells; in data set [3], 5 µL/min/1e6 cells. In data set [4], this compound gave an inhibition constant Ki of 0.0251 nM.

Consider `O=C(NCCCOc1cccc([C@](O)(C(=O)O[C@H]2CCN(Cc3ccccc3)C2)c2ccccc2)c1)c1ccc(CNC[C@H](O)c2ccc(O)c3[nH]c(=O)ccc23)cc1`, for which the half-life at 2 h, 5 µM is more than 150 min in data set [1], 15 min in data set [5] and 12 min in data set [6]. The intrinsic clearance (hepatocyte CLint) at 1.5 h, 1 µM in data set [2] turned out to be 71 µL/min/1e6 cells; in data set [3], 22 µL/min/1e6 cells. For the same compound, the Ki in data set [4] is 0.398 nM.

As for `O=C(NCCCOc1cccc([C@](O)(C(=O)OC[C@H]2CCN(Cc3ccccc3)C2)c2ccccc2)c1)c1ccc(CNC[C@H](O)c2ccc(O)c3[nH]c(=O)ccc23)cc1`, the half-life at 2 h, 5 µM in data set [1] is more than 128 min; in data set [5], 32 min; in data set [6], 56 min. Besides, the intrinsic metabolic clearance (hepatocyte CLint) at 1.5 h, 1 µM in data set [2] stood at 38 µL/min/1e6 cells; in data set [3] it was 7 µL/min/1e6 cells. The Ki in data set [4] was 0.126 nM.

Turning to `O=C(NCCCOc1cccc([C@](O)(C(=O)OC2CCN(Cc3ccccc3)CC2)c2ccccc2)c1)c1ccc(CNC[C@H](O)c2ccc(O)c3[nH]c(=O)ccc23)cc1`, the half-life at 2 h, 5 µM was more than 150 min in data set [1], 135 min in data set [5] and 8 min in data set [6]. The intrinsic metabolic clearance (hepatocyte CLint) at 1.5 h, 1 µM in data set [2] is 64 µL/min/1e6 cells; in data set [3], 12 µL/min/1e6 cells. Also, the inhibition constant Ki in data set [4] was 0.0501 nM.

`COc1cc(C(=O)NCCCOc2cccc([C@](O)(C(=O)O[C@@H]3CCCN(C)C3)c3ccccc3)c2)c(Cl)cc1CNC[C@H](O)c1ccc(O)c2[nH]c(=O)ccc12`: the half-life at 2 h, 5 µM in data set [1] was more than 150 min; in data set [5], 54 min; in data set [6], 133 min. The hepatocyte CLint at 1.5 h, 1 µM came to 36 µL/min/1e6 cells in data set [2] and 6 µL/min/1e6 cells in data set [3]. In data set [4], this compound showed a Ki of 0.0251 nM.

With `COc1cc(C(=O)NCCCOc2cccc([C@](O)(C(=O)O[C@@H]3CCCN(C)C3)c3ccccc3)c2)ccc1CNC[C@H](O)c1ccc(O)c2[nH]c(=O)ccc12`, the half-life at 2 h, 5 µM in data set [1] is more than 150 min; in data set [5] it was 17 min; in data set [6] it was 112 min. Moreover, the intrinsic metabolic clearance (hepatocyte CLint) at 1.5 h, 1 µM in data set [2] was 29 µL/min/1e6 cells; in data set [3] it was 4 µL/min/1e6 cells. Also, in data set [4], the inhibition constant (Ki) is 0.0158 nM.

Turning to `O=C(NCCCOc1cccc([C@](O)(C(=O)OCC2CCN(C3CCC3)CC2)c2ccccc2)c1)c1ccc(CNC[C@H](O)c2ccc(O)c3[nH]c(=O)ccc23)cc1`, the half-life at 2 h, 5 µM in data set [1] is more than 150 min; in data set [5], 19 min; in data set [6], 119 min. In addition, the intrinsic clearance (hepatocyte CLint) at 1.5 h, 1 µM is 38 µL/min/1e6 cells in data set [2] and 6 µL/min/1e6 cells in data set [3]. For the same compound, the inhibition constant Ki is 0.0251 nM in data set [4] and 1 nM in data set [7].

Regarding `COc1cc(CNC[C@H](O)c2ccc(O)c3[nH]c(=O)ccc23)c(Cl)cc1C(=O)NCCCOc1cccc([C@](O)(C(=O)O[C@@H]2CCCN(C)C2)c2ccccc2)c1`, the figures for the half-life at 2 h, 5 µM in data set [1], in data set [5] and in data set [6] were more than 150 min, 130 min and more than 150 min, respectively. In addition, the intrinsic metabolic clearance (hepatocyte CLint) at 1.5 h, 1 µM in data set [2] is 66 µL/min/1e6 cells; in data set [3], 7 µL/min/1e6 cells. This compound showed an inhibition constant (Ki) in data set [4] of 0.1 nM.

As for `O=C(c1ccc(OCc2ccc(CNC[C@H](O)c3ccc(O)c4[nH]c(=O)ccc34)cc2)cc1)N1CC(C(=O)OCC2CCN(Cc3ccccc3)CC2)(c2ccccc2)C1`, the results for the Ki in data set [4] and in data set [7] were 0.251 nM and 7.94 nM, respectively.

In the case of `CN1CCC[C@@H](OC(=O)[C@](O)(c2ccccc2)c2cccc(OCCCNC(=O)c3ccc(CNC[C@H](O)c4ccc(O)c5[nH]c(=O)ccc45)nc3)c2)C1.O=CO.O=CO`, the half-life at 2 h, 5 µM in data set [1] was more than 150 min; in data set [5], 17 min; in data set [6] it was more than 150 min. Further, the hepatocyte CLint at 1.5 h, 1 µM in data set [2] was 20 µL/min/1e6 cells; in data set [3], less than 2 µL/min/1e6 cells. In data set [4], this compound gave a Ki of 0.0251 nM.

Turning to `O=C(NCCCOc1cccc([C@](O)(C(=O)O[C@H]2CCCN(Cc3ccccc3)C2)c2ccccc2)c1)c1ccc(CNC[C@H](O)c2ccc(O)c3[nH]c(=O)ccc23)cc1.O=CO`, the half-life at 2 h, 5 µM is more than 150 min in data set [1], 11 min in data set [5] and 15 min in data set [6]. For the same compound, the hepatocyte CLint at 1.5 h, 1 µM turned out to be 53 µL/min/1e6 cells in data set [2] and 19 µL/min/1e6 cells in data set [3]. In data set [4], the affinity, expressed as Ki, was 0.501 nM.

On to `O=C(NCCCOc1cccc([C@](O)(C(=O)O[C@@H]2CCCN(Cc3ccccc3)C2)c2ccccc2)c1)c1ccc(CNC[C@H](O)c2ccc(O)c3[nH]c(=O)ccc23)cc1.O=CO`, for which the half-life at 2 h, 5 µM is more than 150 min in data set [1], 5 min in data set [5] and more than 150 min in data set [6]. The intrinsic metabolic clearance (hepatocyte CLint) at 1.5 h, 1 µM is 78 µL/min/1e6 cells in data set [2] and 20 µL/min/1e6 cells in data set [3]. The compound also showed a Ki in data set [4] of 0.316 nM.

For `O=C(NCCCOc1cccc([C@](O)(C(=O)OC[C@@H]2CCN(Cc3ccccc3)C2)c2ccccc2)c1)c1ccc(CNC[C@H](O)c2ccc(O)c3[nH]c(=O)ccc23)cc1`, the figures for the half-life at 2 h, 5 µM in data set [1], in data set [5] and in data set [6] were more than 150 min, 15 min and 58 min, respectively. Further, the values for the hepatocyte CLint at 1.5 h, 1 µM in data set [2] and in data set [3] were 37 µL/min/1e6 cells and 5 µL/min/1e6 cells, respectively. The same compound showed an inhibition constant (Ki) in data set [4] of 0.0794 nM.

As for `O=C(NCCCOc1cccc([C@](O)(C(=O)OCC2CCN(C3CCCC3)CC2)c2ccccc2)c1)c1ccc(CNC[C@H](O)c2ccc(O)c3[nH]c(=O)ccc23)cc1`, the half-life at 2 h, 5 µM in data set [1] is more than 150 min; in data set [5], 14 min; in data set [6], 139 min. Also, the results for the hepatocyte CLint at 1.5 h, 1 µM in data set [2] and in data set [3] were 51 µL/min/1e6 cells and 5 µL/min/1e6 cells, respectively. Also, the results for the inhibitory constant (Ki) in data set [4] and in data set [7] were 0.02 nM and 1.58 nM, respectively.

Take `Cc1cc(C(=O)NCCCOc2cccc([C@](O)(C(=O)O[C@@H]3CCCN(C)C3)c3ccccc3)c2)c(C)cc1CNC[C@H](O)c1ccc(O)c2[nH]c(=O)ccc12`: the values for the half-life at 2 h, 5 µM in data set [1], in data set [5] and in data set [6] were more than 150 min, 30 min and 142 min, respectively. Moreover, the intrinsic metabolic clearance (hepatocyte CLint) at 1.5 h, 1 µM in data set [2] came to 49 µL/min/1e6 cells; in data set [3], 3 µL/min/1e6 cells. Further, the Ki in data set [4] is 0.0158 nM.

For `CN1CCC[C@@H](OC(=O)[C@](O)(c2ccccc2)c2cccc(OCCCNC(=O)c3cccc(CNC[C@H](O)c4ccc(O)c5[nH]c(=O)ccc45)c3)c2)C1`, the half-life at 2 h, 5 µM in data set [1] is more than 150 min; in data set [5], 8 min; in data set [6], 98 min. In addition, the hepatocyte CLint at 1.5 h, 1 µM amounted to 28 µL/min/1e6 cells in data set [2] and 5 µL/min/1e6 cells in data set [3]. The same compound had an inhibitory constant (Ki) in data set [4] of 2 nM.

As to `COc1cc(C(=O)NCCCOc2cccc([C@](O)(C(=O)O[C@@H]3CCCN(C)C3)c3ccccc3)c2)c(OC)cc1CNC[C@H](O)c1ccc(O)c2[nH]c(=O)ccc12`, the half-life at 2 h, 5 µM in data set [1], in data set [5] and in data set [6] was more than 150 min each time. In addition, the hepatocyte CLint at 1.5 h, 1 µM was 61 µL/min/1e6 cells in data set [2] and 6 µL/min/1e6 cells in data set [3]. This compound gave a Ki in data set [4] of 0.0631 nM.

`CN1CCC[C@@H](OC(=O)[C@](O)(c2ccccc2)c2cccc(OCCCNC(=O)c3ccc(CNC[C@H](O)c4ccc(O)c5[nH]c(=O)ccc45)c(F)c3)c2)C1.O=CO`: the results for the half-life at 2 h, 5 µM in data set [1], in data set [5] and in data set [6] were more than 150 min, 15 min and 84 min, respectively. The intrinsic clearance (hepatocyte CLint) at 1.5 h, 1 µM in data set [2] came to 54 µL/min/1e6 cells; in data set [3], 6 µL/min/1e6 cells. Further, affinity in data set [4] was put at a Ki of 0.0126 nM.

`O=C(NCCCCNC[C@H](O)c1ccc(O)c2[nH]c(=O)ccc12)c1ccc(C(=O)NC2(C(=O)O[C@H]3CN4CCC3CC4)CCc3ccccc32)cc1` (single isomer, unassigned): the Ki in data set [4] is 0.398 nM; in data set [7] it was more than 50.1 nM.

With `O=C(NCCCCNC[C@H](O)c1ccc(O)c2[nH]c(=O)ccc12)c1cccc(C(=O)NC2(C(=O)O[C@H]3CN4CCC3CC4)CCc3ccccc32)c1` (single isomer, unassigned), the inhibition constant (Ki) was 1.58 nM in data set [4] and 12.6 nM in data set [7].
